Key:
Test in all cases: two-electrode voltage clamp, Xenopus oocytes
Format in all cases: cell-based
AsegIR75q.1/AsegIR8a [1] = biological target: T1, AsegIR75q.1/AsegIR8a (Agrotis segetum, UniProt Z9J2I4KL46); settings: agonist, weak; co-expressed with AsegIR8a; -80 mV; pH 7.6; 0.1% DMSO; 100 μM
T1 construct: full-length cDNA in pCS2+, cRNA co-injected with AsegIR8a cRNA in Xenopus laevis oocytes; with Ionotropic receptor 8a
T1 sequence (Z9J2I4KL46 1-637): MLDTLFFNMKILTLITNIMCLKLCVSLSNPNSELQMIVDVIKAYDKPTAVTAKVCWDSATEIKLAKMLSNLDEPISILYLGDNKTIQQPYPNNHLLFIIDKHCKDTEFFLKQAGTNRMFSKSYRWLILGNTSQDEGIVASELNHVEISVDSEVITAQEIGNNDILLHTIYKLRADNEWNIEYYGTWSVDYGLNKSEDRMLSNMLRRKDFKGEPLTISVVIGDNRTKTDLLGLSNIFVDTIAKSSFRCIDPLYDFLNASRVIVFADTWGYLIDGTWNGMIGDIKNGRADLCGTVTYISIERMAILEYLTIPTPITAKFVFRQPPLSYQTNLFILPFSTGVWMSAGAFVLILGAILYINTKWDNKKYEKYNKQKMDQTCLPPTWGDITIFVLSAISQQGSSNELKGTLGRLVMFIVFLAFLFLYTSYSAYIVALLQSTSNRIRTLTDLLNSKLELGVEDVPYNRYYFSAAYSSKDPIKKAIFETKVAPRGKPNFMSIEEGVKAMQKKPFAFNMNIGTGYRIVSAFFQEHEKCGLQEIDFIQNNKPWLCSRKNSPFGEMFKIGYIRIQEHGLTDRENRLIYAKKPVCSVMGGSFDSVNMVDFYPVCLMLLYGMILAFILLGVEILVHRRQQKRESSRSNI

AsegIR75p.1/AsegIR8a = biological target: T2, AsegIR75p.1/AsegIR8a (Agrotis segetum, UniProt Z9OWS8C5E7); settings: agonist; co-expressed with AsegIR8a; -80 mV; pH 7.6; 0.1% DMSO; 100 μM and dose-response
T2 construct: full-length cDNA in pCS2+, cRNA co-injected with AsegIR8a cRNA in Xenopus laevis oocytes; with Ionotropic receptor 8a
T2 sequence (Z9OWS8C5E7 1-676): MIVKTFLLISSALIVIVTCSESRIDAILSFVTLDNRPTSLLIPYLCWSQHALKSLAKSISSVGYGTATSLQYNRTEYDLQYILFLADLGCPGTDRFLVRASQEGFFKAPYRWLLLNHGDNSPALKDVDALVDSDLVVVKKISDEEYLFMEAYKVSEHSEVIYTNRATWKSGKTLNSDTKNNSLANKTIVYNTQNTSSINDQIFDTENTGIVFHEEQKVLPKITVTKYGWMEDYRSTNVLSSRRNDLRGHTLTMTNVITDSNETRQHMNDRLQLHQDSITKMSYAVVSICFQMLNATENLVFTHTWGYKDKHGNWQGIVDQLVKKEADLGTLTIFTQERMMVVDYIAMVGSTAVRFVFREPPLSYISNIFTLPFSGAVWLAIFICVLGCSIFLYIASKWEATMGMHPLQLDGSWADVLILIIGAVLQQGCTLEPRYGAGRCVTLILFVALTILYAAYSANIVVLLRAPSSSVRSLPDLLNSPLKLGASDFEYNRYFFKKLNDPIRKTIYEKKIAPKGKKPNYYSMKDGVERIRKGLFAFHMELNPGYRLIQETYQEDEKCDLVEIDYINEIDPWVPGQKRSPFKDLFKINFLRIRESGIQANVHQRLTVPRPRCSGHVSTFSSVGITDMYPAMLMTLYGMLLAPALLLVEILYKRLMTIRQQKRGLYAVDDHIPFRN

AsegIR75q.1/AsegIR8a [2] = biological target: T1, AsegIR75q.1/AsegIR8a; settings: agonist; co-expressed with AsegIR8a; -80 mV; pH 7.6; 0.1% DMSO; dose-response

| SMILES | two-electrode voltage clamp, Xenopus oocytes (AsegIR75q.1/AsegIR8a [1]) | two-electrode voltage clamp, Xenopus oocytes (AsegIR75p.1/AsegIR8a) | other results |
| --- | --- | --- | --- |
| CCCCCCC(=O)O [heptanoic acid] | This receptor also responded slightly to heptanoic acid and octanal | – | – |
| CC/C=C\CCO [(Z)-3-hexenol] | – | hexanoic acid, followed by (Z)-3-hexenol, (E)-2-hexenal, and hexanal | – |
| CCCCCC(=O)O [hexanoic acid] | – | The strongest response was elicited by hexanoic acid | – |
| CCCCCCCC=O [octanal] | This receptor also responded slightly to heptanoic acid and octanal | – | – |
| CCCCCCCCC(=O)O [nonanoic acid] | – | – | threshold concentration (AsegIR75q.1/AsegIR8a [2]): 1 µM |

From paper PMC8822749, “Ionotropic receptors in the turnip moth Agrotis segetum respond to repellent medium-chain fatty acids” (BMC Biology, 2022)
